Read-outs that look alike come from different tables or passages of the source.
Assays:
Assay in all cases: intrinsic tryptophan fluorescence quenching titration (static quenching; Ka, n = […])
Type in all cases: binding
Conditions in all cases: read-out: Ka (M^-1) × 10^4 (converted)
[1] = molecular target: T1, human holo-transferrin (HTF) (Homo sapiens, UniProt P02787)
T1 construct: gene TF

[2] = molecular target: T1, human holo-transferrin (HTF); remark: listed apart in the source
[3] = molecular target: T1, human holo-transferrin (HTF); remark: listed apart in the source

T1 sequence (P02787 20-698): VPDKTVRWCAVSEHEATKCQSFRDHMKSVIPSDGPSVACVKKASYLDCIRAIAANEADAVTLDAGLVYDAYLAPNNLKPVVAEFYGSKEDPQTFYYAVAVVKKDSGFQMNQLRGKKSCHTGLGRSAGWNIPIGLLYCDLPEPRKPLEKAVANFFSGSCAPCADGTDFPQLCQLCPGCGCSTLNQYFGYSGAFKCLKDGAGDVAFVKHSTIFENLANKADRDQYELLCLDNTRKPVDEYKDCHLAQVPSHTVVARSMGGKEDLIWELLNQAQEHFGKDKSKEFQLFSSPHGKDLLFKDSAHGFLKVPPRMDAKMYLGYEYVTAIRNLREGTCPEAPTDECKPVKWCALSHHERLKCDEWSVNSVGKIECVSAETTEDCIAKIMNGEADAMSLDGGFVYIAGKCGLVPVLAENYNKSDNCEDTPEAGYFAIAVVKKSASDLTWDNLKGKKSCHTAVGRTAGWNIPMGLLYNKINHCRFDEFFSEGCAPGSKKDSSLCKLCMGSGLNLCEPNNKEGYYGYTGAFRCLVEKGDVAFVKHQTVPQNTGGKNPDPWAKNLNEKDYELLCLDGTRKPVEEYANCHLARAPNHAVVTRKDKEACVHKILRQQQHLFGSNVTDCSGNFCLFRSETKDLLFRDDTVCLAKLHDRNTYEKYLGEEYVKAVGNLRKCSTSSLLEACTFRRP

Work on `CO[C@H]1[C@H](O)[C@@H](O)[C@H](Oc2cc(C3CC(=O)c4cc(C)ccc4O3)ccc2O)O[C@@H]1CO` (stereo partly drawn) [MFA, 4′-hydroxy-6-methylflavanone 3′-O-β-D-(4′’-O-methyl)-glucopyranoside] yielded a Kd [1] of 89.3 µM.

Work on `CO[C@H]1[C@H](O)[C@@H](O)[C@H](Oc2cc(C3CC(=O)c4cc(CO)ccc4O3)ccc2O)O[C@@H]1CO` (stereo partly drawn) [MFB, 4′-hydroxy-6-hydroxymethylflavanone 3′-O-β-D-(4′’-O-methyl)-glucopyranoside] yielded a Kd [2] of 68 µM.

For `CO[C@H]1[C@H](O)[C@@H](O)[C@H](OCc2ccc3c(c2)C(=O)CC(c2ccc(O)cc2)O3)O[C@@H]1CO` (stereo partly drawn) [MFC, 4′-hydroxyflavanone 6-methylene-O-β-D-(4′’-O-methyl)-glucopyranoside], the Kd [3] was 35.8 µM.
